In data set [1] the test system is Verticillium dahliae. Kind of data set: Verticillium wilt disease test on transgenic potato plants expressing the polypeptide. The format is in vivo, potato (Solanum tuberosum var. Russet Burbank). As to conditions: for Verticillium wilt resistance conferred to potato plants: expression levels as high as 25 μg/g fresh leaf tissue; for Disease Severity (%) (58 Days Post Inoc.): average of three replicates; for difference in disease progress between expressing lines and control lines: rated at 49, 58, and 64 days post inoculation; for Disease Severity (%) (44 Days Post Inoc.): average of 3 replicates. The method, then: Conidia and mycelia of a 2-3 week old culture of virulent Verticillium dahliae were used to inoculate a PDA (potatoes, 200 g/l; Bacto dextrose, 20 g/l; and Bacto agar, 15 g/l ) Petri plate. This culture was allowed to grow at 22° C. for 4-5 days. Conidia were then harvested by washing the culture plate with sterile distilled water and filtering the liquid through two layers of cheesecloth. The conidial spore concentration was determined using a hemacytometer, and adjusted to 1×10^6 conidia/ml with sterile distilled water.
Transgenic and non-transgenic potato plants were grown from stem cuttings under sterile conditions as described above in plastic cups containing 50 mls of PM-agar medium. When plants were about 1-2 inches tall, they were removed from the medium and their roots were dipped in the spore suspension (Joaquim et al. (1991) Phytopathology 81:552-558). The inoculated plants were then transplanted into 6-inch pots containing Metro-Mix 350. After transplanting, each plant received an additional 5mls of the spore suspension on the soil surface around the base of the stem. The pots were placed in a growth chamber under the following conditions: temperature at 20° C., light intensity at 320 μEinstein/sec/cm^2, 12 hr day/12 hr night light cycle, subirrigation with water 2 times/day, 20 minutes soaking each time. Four weeks after inoculation, the plants were scored for disease severity on a scale of 0-100% (Horsfall et al. (1945) Phytopathology 35:655). To develop a disease progress curve over time, plants were rated once a week for at least 8 weeks.
Table 3 summarizes the protein expression level in each of the lines, and the disease severity rating of each individual line in the test determined at 44 days post inoculation. The disease severity rating was the average of 3 replicates. For convenience, the same disease data are also presented as a bar graph in FIG. 11. The order of appearance of each potato line in Table 3 (from top to bottom) and in FIG. 11 (from left to right) is the same.
In this test, disease symptoms appeared in the experimental and control plants at approximately 49 days post inoculation. Disease progress was rated at 49, 58, and 64 days post inoculation. […] The disease severity rating was the average of three replicates. Table 4 summarizes the protein expression level in each of the lines, and the disease severity rating of each individual line determined at 58 days post inoculation. For convenience, the same disease data are also presented as a bar graph in FIG. 12. The order of appearance of each potato line in Table 4 (from top to bottom) and in FIG. 12 (from left to right) is the same.

For data set [2], the system named is Fusarium culmorum. As to conditions: F. culmorum, comparison peptides disclosed in WO 93/05153, cited from earlier work.
Data set [3] deals with Verticillium dahliae. As to conditions: V. dahliae, comparison peptides disclosed in WO 93/05153, cited from earlier work.
Data set [4] relates to Verticillium dahliae. Kind of data set: Antifungal activity: inhibition of fungal hyphal growth (microscopy). As to conditions: V. dahliae. The format is cell-based.
Protocol: (§1) The antifungal activity of AlyAFP can be expressed as the concentration thereof in μg/ml required to cause 50% inhibition of fungal hyphal growth (IC50). Percent fungal hyphal growth inhibition is defined as 100×the ratio of the average hyphae length in the test sample culture divided by the average hyphae length in the control culture in which buffer is added in place of the polypeptide sample.
(§2) The antifungal activity of AlyAFP was determined by measuring the inhibition of fungal hyphal length of a number of different fungi in the presence of this polypeptide under an inverted microscope. Fungal spores (2×10^4 spores/ml) were allowed to germinate for 5 to 15 hours, depending on the fungus used in the test, in 50 μl of double strength testing medium. […] For experiments on the antagonistic effect of cations, CaCl2 and KCl were added to final concentrations of 1 mM and 50 mM, respectively. This salt-supplemented medium is refered to as “high salt medium,” and the original medium is refered to as “low salt medium.” After spore germination, 50 μl of a filter-sterilized solution of polypeptide in distilled water were added to the testing well containing the germinated spores, and the mixture was incubated for 15 to 24 hours at 24° C. […] Polypeptide concentrations were determined using the BCA protein assay kit obtained from Pierce (Rockford, Ill.).
A short description of data set [5]: ELISA of antifungal polypeptide expression in leaves of transgenic potato plants. Set-up: species or system potato (Solanum tuberosum var. Russet Burbank). As to conditions: 3 transgenic potato lines. On the procedure: Leaf samples (20 to 100 mg) were taken from transgenic plants grown to 1 to 2 inches in height. The leaf samples were ground in PBST buffer (15 μl/mg tissue) containing 1 mM KH2PO4, 10 mM Na2HPO4, 137 mM NaCl, 2.7 mM KCl, pH 7.4, and 0.05% Tween-20, and allowed to sit at 4° C. overnight. After centrifugation, 100 μl of the supernatant were used in an ELISA assay. Polyclonal antibodies against Rs-AFP1 polypeptide (SEQ ID NO:18) were prepared by Pocono Rabbit Farm (Pocono, Pa.). Wells of a Nunc Maxi-sorp 96 well plate (Nunc #4-39454) were coated with antibodies against Rs-AFP1 polypeptide by adding 100 μl of antibodies (1 mg IgG/ml) diluted 1:200 in coating buffer containing 1.59 g Na2CO3 and 2.93 g NaHCO3 per liter distilled water, pH 9.6, and incubating at 4° C. overnight. The coating solution was then removed from the wells, which were then washed three times with PBST. One hundred μl of leaf supernatant or appropriately diluted polypeptide standards in PBST supplemented with 0.2% (w/v) BSA, fraction V (Sigma, St. Louis) were added to the wells. The concentration of each polypeptide in extracts from transgenic plants was determined from standard curves constructed using varying amounts of the respective purified polypeptide. […] The optical density at 405 nm was determined using a Thermo-max microplate reader (Molecular Devices, Menlo Park, Calif.). […]

The test system of data set [6] is Fusarium culmorum. As to conditions: F. culmorum.
Protocol: as §1, §2
Setting [7] is: 58 days post inoc., average of the 5 expressing lines marked +, vector control 60.0.
Where [8] appears, read: high salt medium (1 mM CaCl2, 50 mM KCl).

Read-outs that look alike come from different tables or passages of the source.

As a reminder, the IC50 is the concentration at which inhibition is half-maximal. On to “Rs-AFP1: small cysteine-rich antifungal protein isolated from radish seed (WO 93/05153), SEQ ID NO:18 (QKLCERPSGTWSGVCGNNNACKNQCINLEKARHGSCNYVFPAHKCICYFPC)”, for which the “Average Dis. Sev.” value in the data set with Verticillium dahliae [1] (setting [7]) worked out at 59.8%. The “Verticillium wilt resistance conferred to potato plants” value in the data set with Verticillium dahliae [1] was “did not provide any significant level of Verticillium wilt resistance”. Also, the “Disease Severity (%) (58 Days Post Inoc.)” value is reported as 47.5% in the data set with Verticillium dahliae [1] (potato line 15117, 9.7 μg AFP/g tissue); 50.0% in the data set on Verticillium dahliae [1] (potato line 15120, 8.0 μg AFP/g tissue); 56.3% in the data set on Verticillium dahliae [1] (potato line 15124, 26 μg AFP/g tissue); 78.8% in the data set on Verticillium dahliae [1] (potato line 15143, 18.3 μg AFP/g tissue); 66.3% in the data set with Verticillium dahliae [1] (potato line 15154, 5.2 μg AFP/g tissue). Further, the “difference in disease progress between expressing lines and control lines” value in the data set with Verticillium dahliae [1] is “No differences”. The “IC50” value was 70 µg/mL with Fusarium culmorum [2] (high salt), 5 µg/mL in the data set with Fusarium culmorum [2] (low salt), above 100 µg/mL with Verticillium dahliae [3] (high salt) and 5 µg/mL with Verticillium dahliae [3] (low salt).
For the substance “AlyAFP: antifungal polypeptide of 50 amino acids obtainable from flowers of Alyssum, SEQ ID NO:2 (RLCERPSGTWSGVCGNNNACRNQCRNLERAEHGSCNYVFPAHKCICYFPC)”, the “IC50” value in the data set on Verticillium dahliae [4] (setting [8]) is below 5 µg/mL; in the data set with Verticillium dahliae [4] (low salt medium), below 1 µg/mL; in the data set on Fusarium culmorum [6] (setting [8]), below 10 µg/mL; in the data set on Fusarium culmorum [6] (low salt medium), below 2 µg/mL. Also, the “Average Dis. Sev.” value in the data set with Verticillium dahliae [1] (44 days post inoc., average of the 8 high and medium expressing lines marked +, vector control 39.2) was 14.9%. Moreover, the “disease severity less than that of the vector control” value with Verticillium dahliae [1] (average of 8 high and medium expressing lines vs average of 3 vector control lines, 44 days) is 62%; in the data set with Verticillium dahliae [1] (best high expressing lines #17575 and #17587, 44 days), 82%. For the same substance, the “disease resistance as compared to the vector controls” value with Verticillium dahliae [1] (low expressing lines (0.9 to 1.1 μg/g fresh leaf tissue)) is reported as “did not exhibit any significant level of disease resistance”. Also, the “Disease Severity (%) (44 Days Post Inoc.)” value in the data set on Verticillium dahliae [1] (potato line 17575, 14.9 μg AFP/g tissue) came to 7.5%; in the data set with Verticillium dahliae [1] (potato line 17578, 12.7 μg AFP/g tissue), 15%; with Verticillium dahliae [1] (potato line 17580, 0.9 μg AFP/g tissue), 33.3%; in the data set on Verticillium dahliae [1] (potato line 17581, 9.2 μg AFP/g tissue), 24.3%; in the data set on Verticillium dahliae [1] (potato line 17587, 9.6 μg AFP/g tissue), 6.3%; in the data set on Verticillium dahliae [1] (potato line 17589, 1.1 μg AFP/g tissue), 43.8%. The “Disease Severity (%) (44 Days Post Inoc.)” value is recorded as 11.8% with Verticillium dahliae [1] (potato line 17592, 2.6 μg AFP/g tissue); 17.3% in the data set on Verticillium dahliae [1] (potato line 17593, 2.6 μg AFP/g tissue); 21% in the data set on Verticillium dahliae [1] (potato line 17595, 5.2 μg AFP/g tissue); 16.3% with Verticillium dahliae [1] (potato line 17618, 2.6 μg AFP/g tissue). Besides, in the data set on Verticillium dahliae [1] (transgenic potato plants), the “expression level at which potato plants exhibit resistance to Verticillium wilt” value is reported as at least 2.6 μg/g fresh leaf tissue. The “expression level, medium expressers” value in data set [5] is recorded as 2.6 μg AlyAFP/g fresh leaf tissue.
As for “Rs-AFP2: small cysteine-rich antifungal protein isolated from radish seed (WO 93/05153), SEQ ID NO:19 (QKLCQRPSGTWSGVCGNNNACKNQCIRLEKARHGSCNYVFPAHKCICYFPC)”, the “Average Dis. Sev.” value in the data set with Verticillium dahliae [1] (setting [7]) worked out at 64.0%. Besides, the “Verticillium wilt resistance conferred to potato plants” value with Verticillium dahliae [1] was “did not provide any significant level of Verticillium wilt resistance”. In addition, the “Disease Severity (%) (58 Days Post Inoc.)” value is on record as 82.5% with Verticillium dahliae [1] (potato line 13500, 10.8 μg AFP/g tissue); 76.3% in the data set on Verticillium dahliae [1] (potato line 13501, 25.2 μg AFP/g tissue); 53.8% in the data set with Verticillium dahliae [1] (potato line 13503, 25.1 μg AFP/g tissue); 72.5% with Verticillium dahliae [1] (potato line 13531, 16.2 μg AFP/g tissue); 35.0% in the data set on Verticillium dahliae [1] (potato line 13532, 17.5 μg AFP/g tissue). For the same substance, the “difference in disease progress between expressing lines and control lines” value with Verticillium dahliae [1] is listed as “No differences”. Further, the “IC50” value with Fusarium culmorum [2] (high salt) is 5 µg/mL; in the data set on Fusarium culmorum [2] (low salt), 2 µg/mL; in the data set on Verticillium dahliae [3] (high salt), 50 µg/mL; in the data set with Verticillium dahliae [3] (low salt) it was 1.5 µg/mL.

(Values after US6653280B2, “Antifungal polypeptide AlyAFP from Alyssum and methods for controlling plant pathogenic fungi” (Monsanto Technology LLC, priority 1996, dated 2003).)
